From US10143668B2, “Hydroxy-substituted amino and ammonium derivatives and their medical use” (GRI BIO, INC., priority 2011, dated 2018)

Tested on: RBL-2H3 cells
Experiment: Inhibition of mast cell degranulation (β-hexosaminidase release)
Format: cell-based
Settings: Rattus norvegicus, RBL-2H3 cells sensitized with anti-DNP IgE, triggered with DNP-HSA
From the text: Mast cells are key effector cells involved in allergic and inflammatory diseases, and the Rat Basophilic Leukemia clone 2H3 (RBL-2H3) cell line is a commonly used model of allergen dependent immune modulator release (degranulation) in mast cells. On their surface, they express the high affinity receptor for IgE (FcεRI) Upon binding of antigen-specific IgE to the receptor, cells become sensitized to the IgE specific antigen (allergen). When IgE-sensitized cells then encounter multivalent antigen, the antigen clusters IgE-FcεRI complexes and initiates a signal transduction cascade that leads to degranulation, that is, the release of inflammatory mediators, such as cytokines, eicosanoids, histamine and enzymes. The assay can be used as a screening method to identify immune-modulating compounds, in particular compounds useful in the medical management of allergic and inflammatory diseases and asthma. β-hexosaminidase was previously shown to be released with the same kinetics as histamine (Schwartz et al., J Immunology; 123:1445-1450 (1979)), thus offering a simple means to monitor degranulation. The RBL-2H3 cell line has been successfully used to identify compounds with anti-allergic activity (Choo et al. Planta Med., 69:518-522 (2003)).
Cell Culture: RBL-2H3 cells obtained from the German Collection of Microorganisms and Cell Cultures (ACC312) (Braunschweig, Germany) were maintained in 70% Minimum Essential Medium with Earle's Salts, 20% RPMI 1640 Medium, 10% FBS and 2 mM L-glutamine in 95% air/5% CO2 at 37° C. and routinely checked for mycoplasma contamination. Cells were passaged every 3-4 days; after washing cells once with 35 ml PBS cells were incubated 8 min with 5 ml 0.05% Trypsin-EDTA solution at 37° C. Cells were removed from the incubator, 15 ml culture medium was added and cells were resuspended by repeated pipetting.
Cell seeding: cells were harvested with Trypsin-EDTA as described and 50-100 μl cell suspension seeded into Costar CellBind 24 well cluster plates (no. 3337). Plates were kept for 30 min at RT under the sterile hood before being transferred to the incubator. Cells were used within one or two days after seeding.
For sensitization, cells for immediate use were sensitized 6-12 h after plating; cells to be used the following day were sensitized 26-38 h after plating. Culture plates were removed from the incubator and checked for cell growth and contamination. The medium was discarded and cells were sensitized with anti-DNP IgE (0.4 μg/ml) in 0.4 ml culture medium overnight. Following overnight sensitization, cells were washed with 0.8 ml pre-warmed TyB and 0.38 ml test compound or vehicle control (supplemented or not with 1% FBS) were added to duplicate wells. Samples were adjusted to contain 1% vehicle for test compounds dissolved in organic solvents. Cells were incubated for 1 h at 37° C. At the end of the incubation period, cells were routinely stimulated with 20 μl DNP-HSA (2 μg/ml; final concentration 0.1 μg/ml) diluted in TyB and cells were incubated for 15 min at 37° C. Alternatively, cells were stimulated with 20 μl 5 μM ionomycin (final concentration 0.25 μM) or 20 μl 5 μM thapsigargin (final concentration 0.25 μM), both in the absence or presence of 20 nM PMA (final concentration). […]
MUG substrate solution, 100 μl, were added to supernatant and lysate samples and plates were incubated 30 min at 37° C. […] Fluorescene was measured at 365 nm excitation and 440 nm emmission wavelengths. […]

Work on CCCCCCCCCCCCCC[N+](C)(C)CC(=O)N(C)C[C@H](O)[C@@H](O)[C@H](O)[C@H](O)CO [Compound 1a, N-(2-(Dimethyl(tetradecyl)ammonio)acetyl)-N-methyl-D-glucamine chloride] yielded an IC50 of 3.8 µM.
